Measured values taken from US20080176862A1, “New Compounds 617” (ASTRAZENECA AB, priority 2006, published 2008).
Where a name gives a salt, the structure may show the parent alone.

Target: T1, human β-Secretase (soluble part, AA1-AA460; sBACE-Fc) (Homo sapiens, UniProt P56817)
T1 construct: The soluble part of the human β-Secretase (AA1-AA460) was cloned into the ASP2-Fc10-1-IRES-GFP-neoK mammalian expression vector; made in house
Assay: TR-FRET assay
Type: biochemical
Conditions: substrate (Europium)CEVNLDAEFK(Qsy7) 100 nM, pH 4.5, 15 min at RT; read-out: IC50 (nM) in TR-FRET assay
Procedure: The enzyme used in the IGEN Cleavage-, Fluorescent-, TR-FRET- and BiaCore assays is described as follows:
The soluble part of the human β-Secretase (AA1-AA460) was cloned into the ASP2-Fc10-1-IRES-GFP-neoK mammalian expression vector. The gene was fused to the Fc domain of IgG1 (affinity tag) and stably cloned into HEK 293 cells. Purified sBACE-Fc is stored in Tris buffer, pH 9.2 and has a purity of 95%.
Enzyme was diluted to 6 μg/mL and the substrate (Europium)[…](Qsy7) to 200 nM in reaction buffer (NaAcetate, chaps, triton x-100, EDTA pH 4.5). Compounds were diluted to the desired concentration in dimethyl sulfoxide (final dimethyl sulfoxide concentration in assay is 5%). […] Enzyme (9 μL) and 1 μL of compound in dimethyl sulfoxide was added to the plate, mixed and pre-incubated for 10 min. Substrate (10 μL) was added and the reaction proceeded in the dark for 15 min at RT. The reaction was stopped with the addition of 7 μL NaAcetate, pH 9. The fluorescence of the product was measured on a Victor II plate reader with an excitation wavelength of 340 nm and an emission wavelength of 615 nm. […] The dimethyl sulfoxide control defined the 100% activity level and 0% activity was defined by exclusion of the enzyme (using reaction buffer instead).

T1 sequence (P56817 22-460): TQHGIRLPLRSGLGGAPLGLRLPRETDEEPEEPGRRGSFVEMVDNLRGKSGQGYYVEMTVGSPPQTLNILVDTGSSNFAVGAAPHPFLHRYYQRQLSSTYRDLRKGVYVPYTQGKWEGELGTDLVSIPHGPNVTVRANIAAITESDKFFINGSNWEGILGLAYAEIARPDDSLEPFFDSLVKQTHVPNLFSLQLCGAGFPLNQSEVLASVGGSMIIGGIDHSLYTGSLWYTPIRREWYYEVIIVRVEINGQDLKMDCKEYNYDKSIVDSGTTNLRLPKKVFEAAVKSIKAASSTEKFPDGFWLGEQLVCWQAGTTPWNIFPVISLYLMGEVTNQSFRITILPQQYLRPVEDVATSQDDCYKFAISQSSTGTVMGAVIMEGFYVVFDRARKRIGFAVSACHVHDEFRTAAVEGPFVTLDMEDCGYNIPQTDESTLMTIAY

| IC50 | SMILES |
| --- | --- |
| 834 nM | COc1ccnc(-c2cc(C3(c4ccc(OS(C)(=O)=O)cc4)N=C(N)N(C)C3=O)ccc2F)n1 (stereo not drawn) [Example 6, 4-{2-Amino-4-[4-fluoro-3-(4-methoxypyrimidin-2-yl)phenyl]-1-methyl-5-oxo-4,5-dihydro-1H-imidazol-4-yl}phenyl methanesulfonate 0.25 acetate] |
| 1200 nM | COc1ccnc(-c2cc(C3(c4cccc(OS(C)(=O)=O)c4)N=C(N)N(C)C3=O)ccc2F)n1 (stereo not drawn) [Example 7, 3-{2-Amino-4-[4-fluoro-3-(4-methoxypyrimidin-2-yl)phenyl]-1-methyl-5-oxo-4,5-dihydro-1H-imidazol-4-yl}phenyl methanesulfonate 0.5 acetate] |
| 59 nM | COc1ccc(C2(c3ccc(F)c(-c4cncnc4)c3)N=C(N)N(C)C2=O)cc1OS(=O)(=O)C(F)(F)F (stereo not drawn) [Example 14, 5-[2-Amino-4-(4-fluoro-3-pyrimidin-5-ylphenyl)-1-methyl-5-oxo-4,5-dihydro-[H-imidazol-4-yl]-2-methoxyphenyl trifluoromethanesulfonate 0.5 acetate] |
| 1910 nM | COc1ccc(F)c(-c2cncc(C3(c4ccc(OS(C)(=O)=O)cc4)N=C(N)N(C)C3=O)c2)c1 (stereo not drawn) [Example 21, 4-{2-Amino-4-[5-(2-fluoro-5-methoxyphenyl)pyridin-3-yl]-1-methyl-5-oxo-4,5-dihydro-1H-imidazol-4-yl}phenyl methanesulfonate 0.5 acetate] |
| 1650 nM | CN1C(=O)C(c2ccc(OS(C)(=O)=O)cc2)(c2cncc(-c3cccnc3F)c2)N=C1N (stereo not drawn) [Example 22, 4-[2-amino-4-(2′-fluoro-3,3′-bipyridin-5-yl)-1-methyl-5-oxo-4,5-dihydro-1H-imidazol-4-yl]phenyl methanesulfonate 0.5 acetate] |
| 387 nM | CN1C(=O)C(c2ccc(OS(C)(=O)=O)cc2)(c2ccnc(-c3cccnc3F)c2)N=C1N (stereo not drawn) [Example 29, 4-[2-Amino-4-(2′-fluoro-2,3′-bipyridin-4-yl)-1-methyl-5-oxo-4,5-dihydro-1H-imidazol-4-yl]phenyl methanesulfonate 0.25 acetate] |
| 924 nM | CN1C(=O)C(c2ccc(OS(C)(=O)=O)cc2)(c2ccnc(-c3cccc(C#N)c3)c2)N=C1N (stereo not drawn) [Example 34, 4-{2-Amino-4-[2-(3-cyanophenyl)pyridin-4-yl]-1-methyl-5-oxo-4,5-dihydro-1H-imidazol-4-yl}phenyl methanesulfonate 0.25 acetate] |
| 365 nM | COc1cccc(-c2cc(C3(c4ccc(OS(C)(=O)=O)cc4)N=C(N)N(C)C3=O)ccn2)c1 (stereo not drawn) [Example 39, 4-{2-Amino-4-[2-(3-methoxyphenyl)pyridin-4-yl]-1-methyl-5-oxo-4,5-dihydro-1H-imidazol-4-yl}phenyl methanesulfonate 0.25 acetate] |
| 34 nM | COc1ccc(C2(c3cccc(-c4cc(OC)cc(OS(C)(=O)=O)c4)c3)N=C(N)N(C)C2=O)cc1 (stereo not drawn) [Example 57, 3′-[2-Amino-4-(4-methoxyphenyl)-1-methyl-5-oxo-4,5-dihydro-1H-imidazol-4-yl]-5-methoxybiphenyl-3-yl methanesulfonate] |
| 25 nM | COc1cc(OS(C)(=O)=O)cc(-c2cccc(C3(c4ccc(OC)c(C(F)(F)F)c4)N=C(N)N(C)C3=O)c2)c1 (stereo not drawn) [Example 60, 3′-{2-Amino-4-[4-methoxy-3-(trifluoromethyl)phenyl]-1-methyl-5-oxo-4,5-dihydro-1H-imidazol-4-yl}-5-methoxybiphenyl-3-yl methanesulfonate] |
| 25 nM | COc1cc(OS(C)(=O)=O)cc(-c2cccc(C3(c4ccc(OC)c(C)c4)N=C(N)N(C)C3=O)c2)c1 (stereo not drawn) [Example 62, 3′-[2-Amino-4-(4-methoxy-3-methylphenyl)-1-methyl-5-oxo-4,5-dihydro-1H-imidazol-4-yl]-5-methoxybiphenyl-3-ylmethanesulfonate 0.25acetate] |
| 18 nM | COc1cc(OS(C)(=O)=O)cc(-c2cccc(C3(c4ccc(OC(F)F)cc4)N=C(N)N(C)C3=O)c2)c1 (stereo not drawn) [Example 63, 3′-{2-Amino-4-[4-(difluoromethoxy)phenyl]-1-methyl-5-oxo-4,5-dihydro-1H-imidazol-4-yl}-5-methoxybiphenyl-3-yl methanesulfonate 0.25acetate] |
| 23 nM | COc1cc(OS(C)(=O)=O)cc(-c2cc(C3(c4ccc(OC(F)F)cc4)N=C(N)N(C)C3=O)ccc2F)c1 (stereo not drawn) [Example 69, 5′-{2-Amino-4-[4-(difluoromethoxy)phenyl]-1-methyl-5-oxo-4,5-dihydro-1H-imidazol-4-yl}-2′-fluoro-5-methoxybiphenyl-3-yl methanesulfonate hydrochloride] |
| 2420 nM | CN1C(=O)C(c2ccc(OC(F)F)cc2)(c2ccc(F)c(-c3cc(C#N)cc(OS(C)(=O)=O)c3)c2)N=C1N (stereo not drawn) [Example 70, 5′-{2-Amino-4-[4-(difluoromethoxy)phenyl]-1-methyl-5-oxo-4,5-dihydro-1H-imidazol-4-yl}-5-cyano-2′-fluorobiphenyl-3-yl methanesulfonate hydrochloride] |
| 41 nM | COc1cc(C#N)cc(-c2cc(C3(c4ccc(OS(C)(=O)=O)cc4)N=C(N)N(C)C3=O)ccc2F)c1 (stereo not drawn) [Example 71, 4-[2-Amino-4-(3′-cyano-6-fluoro-5′-methoxybiphenyl-3-yl)-1-methyl-5-oxo-4,5-dihydro-1H-imidazol-4-yl]phenyl methanesulfonate hydrochloride] |
| 54 nM | CN1C(=O)C(c2ccc(OC(F)F)cc2)(c2ccc(F)c(-c3cncc(OS(C)(=O)=O)c3)c2)N=C1N (stereo not drawn) [Example 73, 5-(5-{2-Amino-4-[4-(difluoromethoxy)phenyl]-1-methyl-5-oxo-4,5-dihydro-1H-imidazol-4-yl}-2-fluorophenyl)pyridin-3-yl methanesulfonate hydrochloride] |
| 725 nM | CN1C(=O)C(c2ccc(OS(C)(=O)=O)cc2)(c2ccc(F)c(/C=C/C3CC3)c2)N=C1N (stereo not drawn) [Example 78, 4-(2-Amino-4-{3-[(E)-2-cyclopropylvinyl]-4-fluorophenyl}-1-methyl-5-oxo-4,5-dihydro-1H-imidazol-4-yl)phenyl methanesulfonate] |

| SMILES | IC50 |
| --- | --- |
| COc1cc(OS(C)(=O)=O)cc(-c2cccc(C3(c4ccc(OC(F)(F)F)cc4)N=C(N)N(C)C3=O)c2)c1 (stereo not drawn) [Example 58, 3′-{2-Amino-1-methyl-5-oxo-4-[4-(trifluoromethoxy)phenyl]-4,5-dihydro-1H-imidazol-4-yl}-5-methoxybiphenyl-3-ylmethanesulfonate] | 81 nM |
| CN1C(=O)C(c2ccc(OC(F)(F)F)cc2)(c2cccc(-c3cc(Cl)cc(OS(C)(=O)=O)c3)c2)N=C1N (stereo not drawn) [Example 59, 3′-{2-Amino-1-methyl-5-oxo-4-[4-(trifluoromethoxy)phenyl]-4,5-dihydro-1H-imidazol-4-yl}-5-chlorobiphenyl-3-ylmethanesulfonate] | 128 nM |
| COc1ccc(C2(c3cccc(-c4cc(Cl)cc(OS(C)(=O)=O)c4)c3)N=C(N)N(C)C2=O)cc1C(F)(F)F (stereo not drawn) [Example 61, 3′-{2-Amino-4-[4-methoxy-3-(trifluoromethyl)phenyl]-1-methyl-5-oxo-4,5-dihydro-1H-imidazol-4-yl}-5-chlorobiphenyl-3-ylmethanesulfonate] | 37 nM |
| CN1C(=O)C(c2ccc(OC(F)F)cc2)(c2cccc(-c3cc(Cl)cc(OS(C)(=O)=O)c3)c2)N=C1N (stereo not drawn) [Example 64, 3′-{2-Amino-4-[4-(difluoromethoxy)phenyl]-1-methyl-5-oxo-4,5-dihydro-1H-imidazol-4-yl}-5-chlorobiphenyl-3-ylmethanesulfonate] | 28 nM |
